Measurements published in US8349333B2, “Allergy inhibitor compositions and kits and methods of using the same” (China Agricultural University, priority 2005, dated 2013).

How the values were obtained:
cats [1] = test: Blood smear cell counts of control cats treated with nitenpyram; type: in vivo
Procedure: (§1) To determine relationship of infestation and FAD symptom, 10 cats were separated into three groups, including an experimental group with six cats and two control groups with two cats each. One control group was treated nitenpyram, and another was not treated with the nitenpyram. Each experimental cat was lived separated on day 0 and infested with 100 fleas. After two days, all cats in this group were given the nitenpyram to remove the flea from their bodies. Two of the control cats were also given this medicine on day 0. This challenge cycle was repeated every other week for 7 times
The anti-coagulant peripheral blood at 2 ml was collected on days 0, 2, 16, 30, 44, 58, 62 from the experiment group and day 0, 14, 28, 42, 56, 60 from the control groups. The same samples were collected after the immunization. A drop of blood was smeared on a clean glass slide. After the smear was dried, the cells were stained with Wright-Giemsa stain for 15 min. After a rinse in deionized water, the smear was gently dried with Kimwipe paper and dehydrated by 96% and 100% ethonol with each 10 seconds treatment. The slide was then treated with xylene for 30 min.
After the staining, nucleus and cytoplasm of blood cell was distinguished by a blue and pink staining. The percentage of each type of cells was counted by a total number of 200 cells in a view under a light microscope.

cats [2] = test: Dermatological scores of control cats treated with nitenpyram; type: in vivo; conditions: control groups, FIG. 5
Procedure: as §1
Cats were scored by the dermatological assessments two days after ceasing each infestation. The assessments were included erythema, papules, crusts, scale, alopecia, excoriation. The body of each cat was divided into three portions to assess which part might have the most severe clinical outcome. According the previous documented report, three parts were consisted of: (1) back, from the head to the tail of dorsal surface; (2) double lateral abdomen, from the scapula to the tail; (3) chest and underside, from laryngeal to the caudomedial thighs.

[3] = peripheral blood, control group with nitenpyram, day 58

`CCN(Cc1ccc(Cl)nc1)/C(=C/[N+](=O)[O-])NC` [nitenpyram] was tested, and the “interference with the cell numbers in the cats' peripheral blood” value (cats [1]; comparison of the two control groups) was “not to interfere”, the “Basophils (%)” value (cats [1]; [3]) was 0.7% and the “Eosinophils (%)” value (cats [1]; [3]) was 3.4%. The “Lymphocytes (%)” value (cats [1]; [3]) was 21.8%, the “Monocytes (%)” value (cats [1]; [3]) was 3.6% and the “Neutrophils (%)” value (cats [1]; [3]) was 70.5%. For the same compound, the “dermatology score, cats treated with nitenpyram compared with the ones without treatment” value (cats [2]) was “no significant difference”.
